Source: US10683297B2 (Sunshine Lake Pharma Co., Ltd., priority 2017, dated 2020)

Experiments:
JAK1 (h) = target: T1, JAK1 (h) (Homo sapiens, UniProt P23458); test: JAK1 (h) kinase assay; format: biochemical; settings: [γ-33P-ATP] 10 μM or KM values; 40 minutes at room temperature
T1 construct: purchased Millipore UK Ltd (assays performed there as a service)
Experimental: The above assay procedure can be used to determine the IC50 for inhibition and/or the inhibition constant, Ki. […] The IC50 value is estimated by preparing a 10 point curve using a ½ log dilution series (for example, a typical curve may be prepared using the following compound concentrations: 3 μM, 1 μM, 0.3 μM, 0.1 μM, 0.03 μM, 0.01 μM, 0.003 μM, 0.001 μM, 0.0003 μM and 0 μM).
JAK1 (h) is incubated with 20 mM Tris/HCl pH 7.5, 0.2 mM EDTA, 500 μM […], 10 mM MgAcetate and [γ-^33P-ATP] […] The reaction is initiated by the addition of the MgATP mix. After incubation for 40 minutes at room temperature, the reaction is stopped by the addition of 3% phosphoric acid solution. 10 μL of the reaction is then spotted onto a P30 filtermat and washed three times for 5 minutes in 75 mM phosphoric acid and once in methanol prior to drying and scintillation counting.
The kinase assays described herein were performed at Millipore UK Ltd, Dundee Technology Park, Dundee DD2 1SW, UK.

[1] = Compound stability in human liver microsomes; format: in vitro ADME; settings: for half-life at 5 μM: human liver microsomes 0.5 mg protein/mL, compound 5 μM, NADPH 1.0 mM, pH 7.4, 37° C., read-out: Human T1/2; for CLint scaled at 5 μM: liver microsomes, pH 7.4, in vivo CLint extrapolated from human liver microsome incubation
Experimental: (§1) The LC/MS/MS system used in the analysis consists of an Agilent 1200 Series vacuum degasser, binary pump, well-plate autosampler, thermostatted column compartment, the Agilent G6430 Triple Quadrupole Mass Spectrometer with an electrosprayionization (ESI) source. Quantitative analysis was carried out using MRM mode. The parameters for MRM transitions are in the Table A.
(§2) An Agilent XDB-C18, 2.1×30 mm, 3.5 μM column was used for the analysis. 5 μL of the samples were injected. Analysis condition: The mobile phase was 0.1% formic acid in water (A) and 0.1% formic acid in methanol (B). The flow rate was 0.4 mL/min. And the gradient of Mobile phase was in the Table B.
(§3) Alternatively, an Agilent 6330 series LC/MS/MS spectrometer equipped with G1312A binary pumps, a G1367A autosampler and a G1314C UV detector were used in the analysis. An ESI source was used on the LC/MS/MS spectrometer. The analysis was done in positive ion mode as appropriate and the MRM transition for each analyte was optimized using standard solution. A Capcell MP-C18 100×4.6 mm I.D., 5 uM column (Phenomenex, Torrance, Calif., USA) was used during the analysis. The mobile phase was 5 mM ammonia acetate, 0.1% MeOH in water (A): 5 mM ammonia acetate, 0.1% MeOH in acetonitrile (B) (70/30, v/v). The flow rate was 0.6 mL/min. Column was maintained at ambient temperature. 20 μL of the samples were injected.
(§4) Human or rat liver microsomes incubations were conducted in duplicate in polypropylene tubes. The typical incubation mixtures consisted of human or rat liver microsomes (0.5 mg protein/mL), compounds of interest (5 μM) and NADPH (1.0 mM) in a total volume of 200 μL potassium phosphate buffer (PBS, 100 mM, pH 7.4). Compounds were dissolved in DMSO and diluted with PBS such that the final concentration of DMSO was 0.05%. The enzymatic reactions were commenced with the addition of […] after a 3-min preincubation and incubated in a water bath open to the air at 37° C. Reactions were terminated at various time points (0, 5, 10, 15, 30, 60 min) by adding equal volume of ice-cold acetonitrile. The samples were stored at […] until LC/MS/MS assays.
(§5) The concentrations of compounds in the incubation mixtures of human or rat liver microsomes were determined by a LC/MS/MS method. The ranges of the linearity in the concentration range were determined for each tested compounds.
(§6) A parallel incubation was performed using denatured microsomes as the negative control, and reactions were terminated at various time points (0, 15, 60 min) after incubation at 37° C.
(§7) Dextromethorphan (70 μM) was selected as the positive control, and reactions were terminated at various time points (0, 5, 10, 15, 30, 60 min) after incubation at 37° C. Both positive and negative control samples were included in each assay to ensure the integrity of the microsomal incubation system.
(§8) The concentrations of compounds in human or rat liver microsome incubations were plotted as a percentage of the relevant zero time point control for each reaction. The in vivo CLint were extrapolated (ref.: Naritomi, Y.; Terashita, S.; Kimura, S.; Suzuki, A.; Kagayama, A.; and Sugiyama, Y.; Prediction of human hepatic clearance from in vivo animal experiments and in vitro metabolic studies with liver microsomes from animals and humans. Drug Metab. Dispos., 2001, 29: 1316-1324).

[2] = Compound stability in rat liver microsomes; format: in vitro ADME; settings: for CLint scaled at 5 μM: liver microsomes, pH 7.4, in vivo CLint extrapolated from rat liver microsome incubation; for half-life at 5 μM: rat liver microsomes 0.5 mg protein/mL, compound 5 μM, NADPH 1.0 mM, pH 7.4, 37° C., read-out: Rat T1/2
Experimental: as §1, §2, §3, §4, §5, §6, §7, §8

[3] = Pharmacokinetics after intravenous and oral administration in rats; format: in vivo; settings: for Clearance (CL) after iv dosing / AUC(0-t) / half-life / Vd: dose 1 mg/kg (Ex. 9: 0.6, Ex. 18: 0.5, Ex. 50: 0.96 mg/kg), iv dosing; for AUC(0-t) / half-life / Vd / bioavailability: rat, plasma; for Vd: read-out: Vss; for bioavailability: oral (generally 5 or 10 mg/kg) versus iv dosing, read-out: F (oral bioavailability)
Experimental: as §1, §2, §3
The compounds disclosed herein are assessed in pharmacokinetic studies in mice, rats, dogs or monkeys. The compounds are administered as a water solution, 2% HPMC+1% TWEEN®80 in water solution, 5% DMSO+5% solutol in saline, 4% MC suspension or capsule. For the intravenous administration, the animals are generally given at about 0.5, 0.6, 1 or 2 mg/kg dose. For the oral (p.o.) dosing, mice and rats are generally given 5 or 10 mg/kg dose, and dogs and monkeys are generally given 10 mg/kg dose. The blood samples (0.3 mL) are drawn at 0.25, 0.5, 1.0, 2.0, 3.0, 4.0, 6.0, 8.0, 12 and 24 h time points or 0.083, 0.25, 0.5, 1.0, 2.0, 4.0, 6.0, 8.0 and 24 h time points and centrifuged at 3,000 or 4000 rpm for 2 to 10 min. The plasma solutions are collected, and stored at […] until analyzed by LC/MS/MS as described above.

T1 sequence (P23458 whole entry): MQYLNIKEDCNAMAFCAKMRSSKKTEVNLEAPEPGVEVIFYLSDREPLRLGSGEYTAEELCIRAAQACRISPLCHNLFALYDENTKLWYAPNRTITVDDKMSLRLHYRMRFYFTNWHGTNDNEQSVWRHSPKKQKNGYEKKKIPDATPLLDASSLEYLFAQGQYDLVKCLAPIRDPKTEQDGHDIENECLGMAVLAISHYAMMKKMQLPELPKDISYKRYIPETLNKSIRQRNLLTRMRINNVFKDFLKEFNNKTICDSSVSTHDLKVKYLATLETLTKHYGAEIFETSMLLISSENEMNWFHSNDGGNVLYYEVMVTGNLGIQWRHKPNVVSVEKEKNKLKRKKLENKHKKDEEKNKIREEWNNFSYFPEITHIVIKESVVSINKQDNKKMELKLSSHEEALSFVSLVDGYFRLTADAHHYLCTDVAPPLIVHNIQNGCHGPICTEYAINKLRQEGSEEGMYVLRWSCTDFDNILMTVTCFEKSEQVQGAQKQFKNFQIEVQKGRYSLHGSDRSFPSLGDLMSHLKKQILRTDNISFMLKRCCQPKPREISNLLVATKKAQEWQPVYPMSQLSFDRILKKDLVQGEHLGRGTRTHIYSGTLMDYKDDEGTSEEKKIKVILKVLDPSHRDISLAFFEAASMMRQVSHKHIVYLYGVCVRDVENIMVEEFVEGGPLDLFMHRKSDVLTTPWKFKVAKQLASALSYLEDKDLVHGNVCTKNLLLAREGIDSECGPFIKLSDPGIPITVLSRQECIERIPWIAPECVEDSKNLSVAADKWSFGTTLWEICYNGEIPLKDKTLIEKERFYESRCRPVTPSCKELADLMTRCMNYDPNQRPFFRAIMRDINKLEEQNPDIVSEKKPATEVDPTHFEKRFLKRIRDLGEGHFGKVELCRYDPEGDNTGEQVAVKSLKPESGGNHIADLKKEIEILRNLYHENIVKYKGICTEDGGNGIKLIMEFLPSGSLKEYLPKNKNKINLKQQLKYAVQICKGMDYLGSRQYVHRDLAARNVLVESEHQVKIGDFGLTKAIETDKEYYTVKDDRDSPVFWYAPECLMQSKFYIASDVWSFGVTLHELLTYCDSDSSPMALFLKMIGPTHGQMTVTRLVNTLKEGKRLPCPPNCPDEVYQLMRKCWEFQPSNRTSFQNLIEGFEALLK

Cc1nc2cc(Nc3ncc(Cl)c(NC4CCN(c5ccc(C#N)nn5)CC4)n3)ccn2c1C [Example 16, 6-(4-((5-chloro-2-((2,3-dimethylimidazo[1,2-a]pyridin-7-yl)amino)pyrimidin-4-yl)amino)piperidin-1-yl)pyridazine-3-carbonitrile]
IC50 (JAK1 (h)): 300 pM

Cc1c(Nc2ncc(Cl)c(NC3CCN(c4ccc(C#N)nn4)CC3)n2)ccn2c(C)cnc12 [Example 29, 6-(4-((5-chloro-2-((3,8-dimethylimidazo[1,2-a]pyridin-7-yl)amino)pyrimidin-4-yl)amino)piperidin-1-yl)pyridazine-3-carbonitrile]
half-life at 5 μM [1]: 43.9 min | CLint scaled at 5 μM [1]: 39.6 mL/min/kg | CLint scaled at 5 μM [2]: 76.8 mL/min/kg | half-life at 5 μM [2]: 32.4 min | Clearance (CL) after iv dosing [3]: 22.3 mL/min/kg | AUC(0-t) [3]: 751 ng·h/mL | half-life [3]: 39.6 min | Vd [3]: 1.16 L/kg | bioavailability [3]: 38.5%

Cc1nc2ccc(Nc3ncc(Cl)c(NC4CCN(c5ccc(C#N)nn5)CC4)n3)cn2n1 [Example 34, 6-(4-((5-chloro-2-((2-methyl-[1,2,4]triazolo[1,5-a]pyridin-6-yl)amino)pyrimidin-4-yl)amino)piperidin-1-yl)pyridazine-3-carbonitrile]
half-life at 5 μM [1]: 125 min | CLint scaled at 5 μM [1]: 13.9 mL/min/kg | CLint scaled at 5 μM [2]: 87.5 mL/min/kg | half-life at 5 μM [2]: 28.4 min | Clearance (CL) after iv dosing [3]: 10.5 mL/min/kg | AUC(0-t) [3]: 1560 ng·h/mL | half-life [3]: 72 min | Vd [3]: 1.53 L/kg | bioavailability [3]: 46.9%

Cc1nc2cc(Nc3ncc(Cl)c(NC4CCN(c5ccc(C#N)nn5)CC4)n3)ccn2n1 [Example 35, 6-(4-((5-chloro-2-((2-methyl-[1,2,4]triazolo[1,5-a]pyridin-7-yl)amino)pyrimidin-4-yl)amino)piperidin-1-yl)pyridazine-3-carbonitrile]
half-life at 5 μM [1]: 183 min | CLint scaled at 5 μM [1]: 9.5 mL/min/kg | CLint scaled at 5 μM [2]: 17.2 mL/min/kg | half-life at 5 μM [2]: 144 min | Clearance (CL) after iv dosing [3]: 5.33 mL/min/kg | AUC(0-t) [3]: 3110 ng·h/mL | half-life [3]: 156 min | Vd [3]: 0.53 L/kg | bioavailability [3]: 57.6%

Cc1nc2cc(Nc3ncc(Cl)c(NC4CCN(c5ccc(C#N)nn5)CC4)n3)ccc2n1C [Example 49, 6-(4-((5-chloro-2-((1,2-dimethyl-1H-benzo[d]imidazol-5-yl)amino)pyrimidin-4-yl)amino)piperidin-1-yl)pyridazine-3-carbonitrile]
half-life at 5 μM [1]: 52.7 min | CLint scaled at 5 μM [1]: 33 mL/min/kg | CLint scaled at 5 μM [2]: 76.5 mL/min/kg | half-life at 5 μM [2]: 32.5 min | Clearance (CL) after iv dosing [3]: 10.8 mL/min/kg | AUC(0-t) [3]: 1540 ng·h/mL | half-life [3]: 36 min | Vd [3]: 0.56 L/kg | bioavailability [3]: 79.6%

CC(O)Cn1cnc2cc(Nc3ncc(Cl)c(NC4CCN(c5ccc(C#N)cn5)CC4)n3)cnc21 (centres unmarked) [Example 52, 6-(4-((5-chloro-2-((3-(2-hydroxypropyl)-3H-imidazo[4,5-b]pyridin-6-yl)amino)pyrimidin-4-yl)amino)piperidin-1-yl)nicotinonitrile]
half-life at 5 μM [1]: 47.8 min | CLint scaled at 5 μM [1]: 36.4 mL/min/kg | CLint scaled at 5 μM [2]: 85.1 mL/min/kg | half-life at 5 μM [2]: 29.2 min | Clearance (CL) after iv dosing [3]: 15.2 mL/min/kg | AUC(0-t) [3]: 1090 ng·h/mL | half-life [3]: 51.6 min | Vd [3]: 0.96 L/kg | bioavailability [3]: 34.1%

CC(O)Cn1ccc2cc(Nc3ncc(Cl)c(NC4CCN(c5ccc(C#N)cn5)CC4)n3)cnc21 (centres unmarked) [Example 54, 6-(4-((5-chloro-2-((1-(2-hydroxypropyl)-1H-pyrrolo[2,3-b]pyridin-5-yl)amino)pyrimidin-4-yl)amino)piperidin-1-yl)nicotinonitrile]
half-life at 5 μM [1]: 8.52 min | CLint scaled at 5 μM [1]: 204 mL/min/kg | CLint scaled at 5 μM [2]: 634 mL/min/kg | half-life at 5 μM [2]: 3.92 min | Clearance (CL) after iv dosing [3]: 23.8 mL/min/kg | AUC(0-t) [3]: 714 ng·h/mL | half-life [3]: 47.4 min | Vd [3]: 0.95 L/kg | bioavailability [3]: 36.6%

N#Cc1ccc(N2CCC(Nc3nc(Nc4ccc5c(c4)ncn5CC4CC4)ncc3Cl)CC2)nn1 [Example 63, 6-(4-((5-chloro-2-((1-(cyclopropylmethyl)-1H-benzo[d]imidazol-5-yl)amino)pyrimidin-4-yl)amino)piperidin-1-yl)pyridazine-3-carbonitrile]
IC50 (JAK1 (h)): 400 pM

CN(C)C(=O)c1nc2cc(Nc3ncc(Cl)c(NC4CCN(c5ccc(C#N)cn5)CC4)n3)ccn2n1 [Example 83, 7-((5-chloro-4-((1-(5-cyanopyridin-2-yl)piperidin-4-yl)amino)pyrimidin-2-yl)amino)-N,N-dimethyl-[1,2,4]triazolo[1,5-a]pyridine-2-carboxamide]
half-life at 5 μM [1]: 15.1 min | CLint scaled at 5 μM [1]: 115 mL/min/kg | CLint scaled at 5 μM [2]: 193 mL/min/kg | half-life at 5 μM [2]: 12.9 min | Clearance (CL) after iv dosing [3]: 9.33 mL/min/kg | AUC(0-t) [3]: 1830 ng·h/mL | half-life [3]: 84.6 min | Vd [3]: 0.65 L/kg | bioavailability [3]: 38.6%

CC(C)(O)c1nc2cc(Nc3ncc(Cl)c(NC4CCN(c5ccc(C#N)nn5)CC4F)n3)ccn2n1 (centres unmarked) [Example 88, 6-(4-((5-chloro-2-((2-(2-hydroxypropan-2-yl)-[1,2,4]triazolo[1,5-a]pyridin-7-yl)amino)pyrimidin-4-yl)amino)-3-fluoropiperidin-1-yl)pyridazine-3-carbonitrile]
half-life at 5 μM [1]: 4720 min | CLint scaled at 5 μM [1]: 0.4 mL/min/kg | CLint scaled at 5 μM [2]: 13.2 mL/min/kg | half-life at 5 μM [2]: 188 min | Clearance (CL) after iv dosing [3]: 17.5 mL/min/kg | AUC(0-t) [3]: 1460 ng·h/mL | half-life [3]: 32.3 min | Vd [3]: 0.688 L/kg | bioavailability [3]: 4.5%
